In patent US20260223849A1, “FUNGICIDAL COMBINATION” (UPL MAURITIUS LIMITED, priority 2023, published 2026):

System: Zymoseptoria tritici (Septoria tritici)
Assay: Efficacy against Zymoseptoria tritici (SEPTTR) on wheat, two applications (stages A and B)
Type: in vivo
Conditions: prothioconazole 520 mL/ha (130 g A/ha), fluxapyroxad 1424 mL/ha (89 g A/ha)
Protocol: The following formula was used to calculate the expected activity of mixtures containing active ingredients, A and B:
[formula] • where A=observed efficacy of active ingredient A at the same concentration as used in the mixture. • B=observed efficacy of active ingredient B at the same concentration as used in the mixture.
In the Colby method, the expected (or predicted) response of a combination of fungicides is calculated by taking the product of the observed response for each individual component of the combination when applied alone divided by 100 and subtracting this value from the sum of the observed response for each component when applied alone. An unexpected enhancement in efficacy of the combination is then determined by comparing the observed response of the combination to the expected (or predicted) response as calculated from the observed response of each individual component alone. If the observed response of the combination is greater than the expected (or predicted) response, or stated conversely, if the difference between the observed and expected response is greater than zero, then the combination is said to be synergistic or unexpectedly effective.
Efficacy of the combination of prothioconazole and fluxapyroxad was determined against Zymoseptoria tritici (Septoria tritici) in wheat crop. The actives prothioconazole and fluxapyroxad were tank mixed and applied as per the table below. Prothioconazole and fluxapyroxad were emulsifiable concentrate formulations with formulation concentrations of 250 g/L and 62.5 g/L, respectively. The applications were made twice at stages ‘A and ‘B’. Stage A was the time at which the first node was at least 1 cm above tillering node (Feekes 6.0=First node visible). Stage ‘B’ was the Flag leaf stage, wherein the flag leaf fully unrolled and ligule was visible (Feekes 9.0=Flag leaf). Applications were made at stage B which was 18 days after application A. The observations were made at 19 DA-A (19 days after application-A) as observed in table 1 (b) and at 23 DA-B (23 days after application B) as observed in Table 1 (c).

[1] = 19 DA-A (19 days after application A)
[2] = 23 DA-B (23 days after application B)

SMILES | % Observed Control of Septoria tritici [1] [%] | % Observed Control of Septoria tritici [2] [%]
Cn1cc(C(=O)Nc2ccccc2-c2cc(F)c(F)c(F)c2)c(C(F)F)n1 [Fluxapyroxad, 3-(difluoromethyl)-1-methyl-N-(3′,4′,5′-trifluorobiphenyl-2-yl) pyrazole-4-carboxamide] | 25.6 | 37.8
OC(Cc1ccccc1Cl)(Cn1[nH]cnc1=S)C1(Cl)CC1 (stereo not shown) [Prothioconazole, 2-[2-(1-chlorocyclopropyl)-3-(2-chlorophenyl)-2-hydroxypropyl]-1,2-dihydro-3H-1,2,4-triazole-3-thione] | 23.7 | 20.0
